From patent US20060199853A1, “Analogs of 4-hydroxyisoleucine and uses thereof” (priority 2005, published 2006)

Key:
[1] = system: differentiated 3T3-L1 adipocyte cells; assay: Stimulation of glucose uptake (3H-deoxy-glucose) by differentiated 3T3-L1 adipocyte cells; assay type: cell-based; details: insulin at 10^-7 M; for stimulation of glucose uptake beyond that caused by insulin alone: FIG. 15B, 0.5 mM; for stimulation of glucose uptake: FIG. 15A, compounds at three concentrations, last 30 min of starvation
Method: Selected analogs according to the invention were tested for their effect on the uptake of ^3H-deoxy-glucose by differentiated 3T3-L1 adipocyte cells. Briefly, 3T3-L1 adipocyte cells (ATCC; Cl-173) were cultured in 12 well tissue culture plates for 3 days in order to reach confluence (Lakshmanan et al., Diabetes Mellitus: Methods and Protocols, Saire Ozcna, Ed., Humana Press Inc., Tonowa, N.J. 97-103, 2003). The culture medium was removed and replaced with differentiation medium (Green and Meuth, Cell 3:127-133, 1974; Madsen et al., Biochem. J. 375:539-549, 2003) and then the cells were incubated for an additional 9 days. The state of differentiation was confirmed by visual examination. Cell starvation was conducted for 5 hours by replacing the differentiation medium with one lacking fetal calf serum. During the last 30 minutes of the starvation period, the cells were exposed to compounds to be assayed at a range of concentrations. As a positive control, cells were exposed to insulin (0.0167 U/mL; Sigma; Cat. No. 15534) for the last 30 minutes of the starvation period Cells were exposed to 0.5 mM isoleucine are used as a control for background uptake. All treatments were performed in triplicate. Cells were washed, then fresh medium containing 16 μM ^3H-Deoxy-D-glucose (0.5 μCi/mL) and 10 μM 2-Deoxy-D-glucose was added and the cells were incubated for 10 min. Glucose uptake was stopped by washing the cells with ice cold PBS. The cells were lysed and specific activity in the lysate was determined relative to background uptake of ^3H-deoxy-glucose. Results were standardized on the basis of protein content per well.
FIG. 1 5B is another figure showing insulin stimulation of glucose uptake by insulin at 10^−7M, and by the analogs of the invention.

INS-1 cells = assay: Glucose-dependent stimulation of insulin secretion in INS-1 cells; assay type: cell-based; details: for insulin stimulating activity: 0.5 mM compound, 4.5 mM glucose; for stimulation of insulin secretion: FIGS. 17A-17E, single concentration of 0.5 mM, 4.5 or 5 mM glucose
Method: Selected analogs according to the invention were tested in a blinded fashion for insulinotropic effect on INS-1 cells. Briefly, the cells were plated at a density of 2×10^5 in 12 well plates and incubated for 2 days in RPMI with 10% fetal calf serum and 11 mM glucose. The medium was removed on the third day post-plating and replaced with RPMI containing 3 mM glucose with 10% fetal calf serum. The cells were incubated for an additional 24 hours. On the fourth day post-plating, the medium was removed and replaced with Krebs-Ringer bicarbonate buffer containing 2 mM glucose. The cells were incubated for 30 min and the buffer was removed and replaced with Krebs-Ringer bicarbonate buffer with 4.5 mM glucose containing the compounds to be tested at a concentration of 0.5 mM. The cells were incubated for 1 hour. Basal insulin secretion was determined by incubating the cells in the presence of buffer with 2 mM glucose. The presence of glucose at 4.5 and 10 mM stimulated insulin secretion served as the reference control and positive control, respectively.
Selected analogs according to the invention were screened for insulinotropic effect on INS-1 pancreatic beta cells according to the method described in Example 3.

[2] = system: Diet Induced Obesity (DIO)-C57BL/6 Mice; assay: Glycemic response to an OGTT after a single oral administration in DIO-C57BL/6 mice; assay type: in vivo; details: FIGS. 18A, 18B; for glycemic response following OGTT (delta glycemia AUC): 100 mg/kg, OGTT 10 minutes post-administration; for efficacy relative to the other compounds tested: OGTT
Method: Studies were conducted to evaluate the effect of acute oral administration of selected analogs according to the invention on the glycemic response of Diet-Induced Obesity (DIO)-C57BI/6 mice following an Oral Glucose Tolerance Test (OGTT).
In the first study, a total of 40 mice were used. The animals were randomized according to their basal glycemia values following a 5±0.5 hours fasting period and then distributed into 5 groups (1 control and 4 treated groups). Each group was composed of 8 animals. On the day of treatment, test articles were dissolved in reverse osmosis water and kept on ice. Control group (Group 1) received sterile water and Group 2 to 5 received 100 mg/kg of Compound #14a, Compound #128, Compound #133 and Compound #13e, respectively.
On the day of experimentation, animals were fasted ˜5 hours prior to the OGTT and then OGTT was performed at 10 minutes post-test article administration, by oral gavage administration of 40% glucose solution. Whole blood glucose levels were monitored using a hand-held glucometer prior to OGTT and for up to 2 hours post-lucose challenge.
In a separate experiment, the effect of acute oral administration of another analog, Compound #85(101a), on the glycemic response of DIO-mice was evaluated using the same experimental design.
FIGS. 18A and 18B show the glycemic response of mice following an OGTT performed after a single oral administration of Compounds #14a, #128, #133, #13e, and #85(101a). For both figures, delta glycemia values were calculated by substraction of pre-OGTT glycemia value. AUC values were obtained from the delta glycemia curves. Values represent the mean±SEM. N=8 animals/group. Ctl=Control DIO.*p<0.05; . . . p<0.001.

[3] = system: Diet Induced Obesity (DIO)-C57BL/6 Mice; assay: Glycemic response to an OGTT during chronic oral administration in DIO-C57BL/6 mice; assay type: in vivo; details: for time of maximal effect on control of glycemia: chronic oral administration twice daily
Method: Studies were conducted to evaluate the effect of a chronic oral administration of selected analogs according to the invention on the glycemic response of Diet-induced Obesity (DIO)-C57BI/6 mice following an Oral Glucose Tolerance Test (OGTT) performed weekly.
In a first study, a total of 56 animals were used. The animals were distributed into 7 groups (6 treated and 1 high fat diet control groups). Each group was composed of 8 animals. The mice were randomized according to basal glycemia values following a 5±0.5 hours fasting period. Compound #14a and #133 were dissolved in reverse osmosis water while Compound #13e was dissolved in 200 mM Bicarbonate/0.1% Tween-20 buffer, pH=9.0. Compounds #14a and #133 were kept at 4° C (administration to groups 2 & 3, and 4 & 5, respectively) while Compound #13e was freshly prepared daily. Control animals received sterile saline, twice daily (Groups 1 […]). Mice from groups 2 and 3 were treated twice daily with Compound #14a at 50 and 100 mg/kg, respectively. Animals from groups 4 and 5 received twice daily 50 and 100 mg/kg of Compound #133, respectively. Mice from groups 6 and 7 received 25 and 50 mg/kg of Compound #13e, twice daily, respectively.
On day 0, 7, 14, and 21, animals fasted for about 5 hours were challenged with an Oral Glucose Tolerance Test (OGTT) at 5 hours post-AM test article administration. Whole blood glucose levels were monitored using a hand-held glucometer prior to OGTT and for up to 2 hours post-glucose challenge. In a separate experiment, the same experimental design was used to evaluate the effect of chronic administration of Compound #85(101a) on the glycemic response of DIO-C57BI/6 mice following an Oral Glucose Tolerance Test (OGTT) performed after 7 days of treatment.
FIGS. 19A, 19B, 19C, and 19D are bar graphs showing glycemic response of mice following an OGTT performed after 7 days (FIGS. 19A and 19D), 14 days (FIG. 19B) or 21 days (FIG. 19C) of treatment after chronic oral administration of selected analogs according to the invention. For each figure, delta glycemia values were calculated by substraction of pre-OGTT glycemia value. AUC values were obtained from the delta glycemia curves. Values represent the mean±SEM. N=8 animals/group. Ctl=Control DIO.*p<0.05.

Compound: N[C@H](C(=O)O)[C@@H]1CCCC[C@H]1O [#13e]
- stimulation of glucose uptake beyond that caused by insulin alone [1]: greater than the stimulation caused by the parent compound
- insulin stimulating activity (INS-1 cells; FIG. 16A, 1 hour): most effective
- insulin stimulating activity (INS-1 cells; FIG. 16B): most effective
- stimulation of insulin secretion (INS-1 cells): more effective to stimulate insulin secretion than parent compound #14a
- glycemic response following OGTT (delta glycemia AUC) [2]: significant effect on the glycemic control of DIO-mice
- efficacy relative to the other compounds tested [2]: most efficacious
- glycemia increase following OGTT ([3]; 25 and 50 mg/kg twice daily, half the dose of the other treated groups): significantly reduced the glycemia increase in DIO-mice
- hyperglycaemic response following OGTT ([3]; 25 and 50 mg/kg twice daily, Day 21, FIG. 19C): reduced significantly the hyperglycaemic response of animals
- time of maximal effect on control of glycemia [3]: 14 days post-initiation of treatment

Compound: O=C(O)[C@H]1C[C@@H](O)CN1 [#201]
- stimulation of insulin secretion (INS-1 cells): more effective to stimulate insulin secretion than parent compound #14a

Compound: C[C@H]([C@H](N)C(=O)O)C(C)(C)O [#85(101a)]
- glycemic response following OGTT (delta glycemia AUC) [2]: significant effect on the glycemic control of DIO-mice
- efficacy relative to the other compounds tested [2]: most efficacious
- glycemic control following OGTT ([3]; 7 consecutive days of administration, statistically significant vs control, FIG. 19D): improved the glycemic control of DIO-mice

Compound: NC(CC(O)c1ccccc1)C(=O)O (centres unmarked) [#61]
- stimulation of insulin secretion (INS-1 cells): more effective to stimulate insulin secretion than parent compound #14a

Compound: CC(=O)N[C@@H]1C(=O)O[C@@H](C)[C@@H]1C [#104]
- stimulation of insulin secretion (INS-1 cells): more effective to stimulate insulin secretion than parent compound #14a

Compound: C[C@@H]([C@H](C)O)[C@H](N)C(=O)O [#14a]
- stimulation of glucose uptake [1]: stimulated glucose uptake at all three concentrations tested
- stimulation of glucose uptake beyond that caused by insulin alone [1]: limited stimulation of glucose uptake beyond that caused by insulin alone
- insulin stimulating activity (INS-1 cells; FIG. 16A, 1 hour): significant insulin stimulating activity
- stimulation of insulin secretion (INS-1 cells): significant insulin stimulating activity in all the experiments
- glycemic response following OGTT (delta glycemia AUC) [2]: significant effect on the glycemic control of DIO-mice
- time of maximal effect on control of glycemia [3]: 14 days post-initiation of treatment

Compound: CC(C)[C@H](NC[C@@H](C)O)C(=O)O [#133]
- glycemic response following OGTT (delta glycemia AUC) [2]: significant effect on the glycemic control of DIO-mice
- time of maximal effect on control of glycemia [3]: 14 days post-initiation of treatment

Compound: CC1C(O)CN[C@@H]1C(=O)O (some centres unmarked) [#22]
- stimulation of insulin secretion (INS-1 cells): more effective to stimulate insulin secretion than parent compound #14a

Compound: N[C@H](C(=O)O)[C@H]1CCCC[C@H]1O [#15e]
- stimulation of insulin secretion (INS-1 cells): more effective to stimulate insulin secretion than parent compound #14a

Compound: CC(O)C1C(O)CN[C@@H]1C(=O)O (some centres unmarked) [#33]
- stimulation of glucose uptake [1]: at least equivalent activity to the parent compound

Compound: C=CC(C)(C)C(N)C(=O)O (centres unmarked) [#102b]
- stimulation of glucose uptake [1]: at least equivalent activity to the parent compound

Compound: insulin [reference compound]
- stimulation of glucose uptake [1]: strongly promoted glucose uptake

Compound: NC(CC(O)C1CCCCC1)C(=O)O (centres unmarked) [#59]
- stimulation of insulin secretion (INS-1 cells): more effective to stimulate insulin secretion than parent compound #14a
